Here are results for 18 molecules from PubChem BioAssay AID292 (DTP/NCI, 2004).

SMILES strings stand for the structures. “And” between values parts separate entries of the source, which are not always exact repeats. Equal entries are not always repeated. Inconclusive results and toxic doses are left out.

This test relates to B6C3F1 mice, ip Sarcoma M5076, median survival T/C. As to the kind of experiment: NCI In Vivo Anticancer Drug Screen. Data for tumor model Sarcoma M5076 (intraperitoneal) in B6C3F1 mice. The following applies: endpoint: median survival time, higher = longer survival. The method, boiled down: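 Survival measured in treated (T) and vehicle control (C) mice with transplantable tumour; result given as T divided by C.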

[1] abbreviates: dose: 37.5 mg/kg/injection, schedule: Q04DX004 (ip), vehicle: saline with Tween-80.
Setting [2] is: dose: 300.0 mg/kg/injection, schedule: Q04DX004 (ip), vehicle: saline with Tween-80.
[3] abbreviates: dose: 600.0 mg/kg/injection, schedule: Q04DX004 (ip), vehicle: saline with Tween-80.
[4] abbreviates: dose: 37.5 mg/kg/injection, schedule: Q04DX004 (ip), vehicle: Klucel (hydroxypropylcellulose) (HPC).
[5] abbreviates: dose: 1.56 mg/kg/injection, schedule: Q04DX004 (ip), vehicle: saline with Tween-80.
Where [6] appears, read: dose: 3.12 mg/kg/injection, schedule: Q04DX004 (ip), vehicle: saline with Tween-80.
[7] abbreviates: dose: 6.25 mg/kg/injection, schedule: Q04DX004 (ip), vehicle: saline with Tween-80.
Setting [8] is: dose: 12.5 mg/kg/injection, schedule: Q04DX004 (ip), vehicle: saline with Tween-80.
Where [9] appears, read: dose: 50.0 mg/kg/injection, schedule: Q04DX004 (ip), vehicle: saline with Tween-80.
Where [10] appears, read: dose: 100.0 mg/kg/injection, schedule: Q04DX004 (ip), vehicle: saline with Tween-80.
The mark [11] stands for this setting: dose: 200.0 mg/kg/injection, schedule: Q04DX004 (ip), vehicle: saline with Tween-80.
[12] abbreviates: dose: 400.0 mg/kg/injection, schedule: Q04DX004 (ip), vehicle: saline with Tween-80.
Where [13] appears, read: dose: 800.0 mg/kg/injection, schedule: Q04DX004 (ip), vehicle: saline with Tween-80.

Consider `CNc1ncn(-c2c(C)cccc2C)c(=O)n1`, for which the T/C by setting is: (dose: 4.69 mg/kg/injection, schedule: Q04DX004 (ip), vehicle: saline with Tween-80) 98 % of control; (dose: 9.38 mg/kg/injection, schedule: Q04DX004 (ip), vehicle: saline with Tween-80) 109 % of control; (dose: 18.75 mg/kg/injection, schedule: Q04DX004 (ip), vehicle: saline with Tween-80) 110 % of control; under setting [1], 109 % of control; (dose: 75.0 mg/kg/injection, schedule: Q04DX004 (ip), vehicle: saline with Tween-80) 100 % of control and 105 % of control and 115 % of control; (dose: 150.0 mg/kg/injection, schedule: Q04DX004 (ip), vehicle: saline with Tween-80) 99 % of control. Also, the T/C is, setting by setting: under setting [2], 100 % of control; under setting [3], 99 % of control.
Consider `CC(=O)NO`, for which the T/C reads like this: (dose: 100.0 mg/kg/injection, schedule: Q04DX004 (ip), vehicle: water) 97 % of control and 100 % of control and 105 % of control; (dose: 200.0 mg/kg/injection, schedule: Q04DX004 (ip), vehicle: water) 101 % of control and 103 % of control and 104 % of control; (dose: 400.0 mg/kg/injection, schedule: Q04DX004 (ip), vehicle: water) 107 % of control and 109 % of control; (dose: 800.0 mg/kg/injection, schedule: Q04DX004 (ip), vehicle: water) 106 % of control and 108 % of control; (dose: 1600.0 mg/kg/injection, schedule: Q04DX004 (ip), vehicle: water) 113 % of control and 115 % of control.
On to `S=c1sc(-c2ccc(Cl)cc2)nn1CSc1nc2ccccc2o1`, for which the T/C was 86 % of control under setting [1] and 94 % of control under setting [2].
As to `Nc1ccn([C@@H]2C=C(CO)[C@@H](O)[C@H]2O)c(=O)n1`, the T/C is, setting by setting: (dose: 0.13 mg/kg/injection, schedule: Q01DX013 (ip), vehicle: saline) 96 % of control; (dose: 0.25 mg/kg/injection, schedule: Q01DX013 (ip), vehicle: saline) 104 % of control; (dose: 0.5 mg/kg/injection, schedule: Q01DX013 (ip), vehicle: saline) 105 % of control.
For the molecule `NCCn1c(-c2ccccc2)nc2ccccc2c1=O`, the T/C by setting is: (dose: 25.0 mg/kg/injection, schedule: Q04DX004 (ip), vehicle: Klucel (hydroxypropylcellulose) (HPC)) 106 % of control; (dose: 50.0 mg/kg/injection, schedule: Q04DX004 (ip), vehicle: Klucel (hydroxypropylcellulose) (HPC)) 102 % of control; (dose: 100.0 mg/kg/injection, schedule: Q04DX004 (ip), vehicle: Klucel (hydroxypropylcellulose) (HPC)) 109 % of control; (dose: 200.0 mg/kg/injection, schedule: Q04DX004 (ip), vehicle: Klucel (hydroxypropylcellulose) (HPC)) 94 % of control.
Consider `CCN1CCC(=C(c2ccccc2)c2ccccc2)C1`, for which the T/C (dose: 18.75 mg/kg/injection, schedule: Q04DX004 (ip), vehicle: Klucel (hydroxypropylcellulose) (HPC)) is 105 % of control and the T/C under setting [4] is 99 % of control.
Consider `Cc1cc(O)c2c(c1O)C(=O)C13C(=C2O)C(=O)C2C(O)C1C1C(O)C3C(=O)C3=C(O)c4c(O)cc(C)c(O)c4C(=O)C321` (configuration not stated), for which the T/C is, setting by setting: under setting [5], 118 % of control; under setting [6], 118 % of control; under setting [7], 118 % of control; under setting [8], 124 % of control.
On to `COc1ccc(OC)c(Cc2cnc3nc(N)nc(N)c3c2C)c1`, for which the T/C was 95 % of control (dose: 25.0 mg/kg/injection, schedule: Q04DX004 (ip), vehicle: water) and 115 % of control (dose: 50.0 mg/kg/injection, schedule: Q04DX004 (ip), vehicle: water).
On to `O=C(O)c1cc(C(=O)O)c(C(=O)O)cc1C(=O)O.[NH2-].[NH2-].[NH2-].[NH2-].[Pt+2].[Pt+2]`, for which the T/C (dose: 0.12 mg/kg/injection, schedule: Q04DX004 (ip), vehicle: water) is 99 % of control; the T/C (dose: 0.25 mg/kg/injection, schedule: Q04DX004 (ip), vehicle: water) was 112 % of control; the T/C (dose: 0.5 mg/kg/injection, schedule: Q04DX004 (ip), vehicle: water) was 100 % of control; the T/C (dose: 1.0 mg/kg/injection, schedule: Q04DX004 (ip), vehicle: water) is 97 % of control; the T/C (dose: 2.0 mg/kg/injection, schedule: Q04DX004 (ip), vehicle: water) was 94 % of control; the T/C (dose: 4.0 mg/kg/injection, schedule: Q04DX004 (ip), vehicle: water) was 103 % of control and 108 % of control. Further, the T/C is 113 % of control and 119 % of control (dose: 8.0 mg/kg/injection, schedule: Q04DX004 (ip), vehicle: water); 150 % of control and 241 % of control (dose: 32.0 mg/kg/injection, schedule: Q04DX004 (ip), vehicle: water); 250 % of control (dose: 64.0 mg/kg/injection, schedule: Q04DX004 (ip), vehicle: water).
Turning to `Cc1ccc2c(c1)C1(SC(C)C(=O)N1c1ccc(Cl)cc1)C(=O)N2` (configuration not stated), the T/C was 96 % of control under setting [9]; 101 % of control under setting [10]; 98 % of control under setting [11]; 93 % of control under setting [12]; 86 % of control under setting [13].
As to `O=[N+]([O-])c1c(O)c(CNCCCO)cc(CNCCCO)c1O`, the T/C reads like this: (dose: 6.25 mg/kg/injection, schedule: Q04DX004 (ip), vehicle: suspension in saline) 98 % of control; (dose: 12.5 mg/kg/injection, schedule: Q04DX004 (ip), vehicle: suspension in saline) 99 % of control; (dose: 25.0 mg/kg/injection, schedule: Q04DX004 (ip), vehicle: suspension in saline) 101 % of control; (dose: 50.0 mg/kg/injection, schedule: Q04DX004 (ip), vehicle: suspension in saline) 118 % of control.
On to `COC(=O)Nc1ccc(Cc2ccc(NC(=O)OC)cc2)cc1`, for which the T/C is, setting by setting: under setting [9], 95 % of control; under setting [10], 93 % of control and 94 % of control; under setting [11], 103 % of control and 119 % of control; under setting [12], 153 % of control; under setting [3], 160 % of control.
For the molecule `Cc1cc(Br)c2nsnc2c1[N+](=O)[O-]`, the T/C is 96 % of control under setting [9]; 112 % of control under setting [10]; 104 % of control under setting [11]; 103 % of control under setting [12]; 87 % of control under setting [13].
Regarding `Cn1c2ccccc2c2oc(CO)cc(=O)c21`, the T/C is, setting by setting: under setting [4], 92 % of control; (dose: 75.0 mg/kg/injection, schedule: Q04DX004 (ip), vehicle: Klucel (hydroxypropylcellulose) (HPC)) 91 % of control; (dose: 150.0 mg/kg/injection, schedule: Q04DX004 (ip), vehicle: Klucel (hydroxypropylcellulose) (HPC)) 91 % of control; (dose: 300.0 mg/kg/injection, schedule: Q04DX004 (ip), vehicle: Klucel (hydroxypropylcellulose) (HPC)) 87 % of control; (dose: 600.0 mg/kg/injection, schedule: Q04DX004 (ip), vehicle: Klucel (hydroxypropylcellulose) (HPC)) 91 % of control.
On to `O=C(NC(Cc1ccc(I)cc1)C(=O)O)c1ccc(Br)cc1` (configuration not stated), for which the T/C (dose: 25.0 mg/kg/injection, schedule: Q04DX004 (ip), vehicle: sodium bicarbonate) is 102 % of control; the T/C (dose: 50.0 mg/kg/injection, schedule: Q04DX004 (ip), vehicle: sodium bicarbonate) is 105 % of control; the T/C (dose: 100.0 mg/kg/injection, schedule: Q04DX004 (ip), vehicle: sodium bicarbonate) is 97 % of control; the T/C (dose: 200.0 mg/kg/injection, schedule: Q04DX004 (ip), vehicle: sodium bicarbonate) is 104 % of control; the T/C (dose: 400.0 mg/kg/injection, schedule: Q04DX004 (ip), vehicle: sodium bicarbonate) is 90 % of control.
`CC(C)CC(NC(=O)CF)C(=O)O` (configuration not stated): the T/C under setting [5] is 98 % of control, the T/C under setting [6] is 102 % of control, the T/C under setting [7] is 95 % of control and the T/C under setting [8] is 97 % of control.
Regarding `c1cc2n(n1)CCN2`, the T/C (dose: 50.0 mg/kg/injection, schedule: Q04DX005 (ip), vehicle: saline) was 86 % of control.
With `O=C(c1ncccc1O)N1CCCCC1`, the T/C reads like this: (dose: 40.63 mg/kg/injection, schedule: Q04DX004 (ip), vehicle: distilled water + Tween-80) 86 % of control; (dose: 81.25 mg/kg/injection, schedule: Q04DX004 (ip), vehicle: distilled water + Tween-80) 103 % of control; (dose: 325.0 mg/kg/injection, schedule: Q04DX004 (ip), vehicle: distilled water + Tween-80) 97 % of control; (dose: 650.0 mg/kg/injection, schedule: Q04DX004 (ip), vehicle: distilled water + Tween-80) 90 % of control.
